In ChEMBL document CHEMBL1151539, “The synthesis and evaluation of diacylglycerol analogues as potential second-messenger antagonists” (Bioorg Med Chem Lett, 1992):

Tests used:
[1] = test system: MR4; assay: Concentration required for inhibiting the growth of MR4 cells; 0.05-0.1; assay type: functional, Mus musculus
[2] = biological target: Protein kinase C (PKC); assay: Inhibition of protein kinase C; assay type: protein assay, Rattus norvegicus
[3] = test system: HT-29; assay: Concentration required for inhibiting the growth of HT-29 cells; 0.1-1.0; assay type: functional, Homo sapiens
[4] = test system: MR4; assay: Concentration required for inhibiting the growth of MR4 cells; 0.1-1.0; assay type: functional, Mus musculus
[5] = test system: HT-29; assay: Concentration required for inhibiting the growth of HT-29 cells; 0.05-0.1; assay type: functional, Homo sapiens

I50 [2] [mM] | Compound | I80 [1] [mM] | I80 [3] [mM] | I80 [4] [mM] | I80 [5] [mM]
0.01 | CCCCCCCC(=O)OCC(COC(C)=O)OC(=O)CCCCCCC (configuration not stated) | 0.05 |  |  | 
0.1 | CCCCCCCC(=O)OCC(COC)OC(=O)CCCCCCC (configuration not stated) |  | 0.1 | 0.1 | 
 | CCCCCCCC(=O)OCC(CO)OC(=O)CCCCCCC (configuration not stated) [MONOCTANOIN COMPONENT C] | 0.05 |  |  | 0.05
